Measurements taken from publication PMC5596636 (ACS chemical neuroscience, 2016).

Assays:
mMC1R [1] = biological target: T1, mMC1R (Mus musculus, UniProt Q01727); conditions: B16 murine melanoma cells; relative to α-MSH; cited from earlier work
mMC1R [2] = biological target: T1, mMC1R; conditions: B16 murine melanoma cells; relative to α-MSH; cited from earlier work; remark: listed apart in the source
mMC4R = mMC4R (Mus musculus, UniProt P56450); assay: cAMP-based β-galactosidase reporter agonist assay in HEK293 cells, mMC4R; conditions: for mMC4R fold difference: EC50 of substituted peptide divided by EC50 of α-MSH, potency loss; for selectivity for the mMC4R over the mMC1R: from agonist EC50 values
mMC4R, sequence (P56450 whole entry): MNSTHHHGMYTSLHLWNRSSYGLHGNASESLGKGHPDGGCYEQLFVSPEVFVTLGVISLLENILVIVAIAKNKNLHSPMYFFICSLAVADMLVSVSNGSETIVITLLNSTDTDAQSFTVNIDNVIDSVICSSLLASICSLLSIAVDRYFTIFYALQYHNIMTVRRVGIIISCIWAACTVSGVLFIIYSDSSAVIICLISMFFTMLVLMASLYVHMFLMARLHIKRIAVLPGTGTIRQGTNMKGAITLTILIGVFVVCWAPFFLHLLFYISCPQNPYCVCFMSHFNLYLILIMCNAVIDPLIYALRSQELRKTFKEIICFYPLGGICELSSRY

rMC3R = conditions: HEK293 cells expressing the rMC3R; relative to α-MSH; cited from earlier work
mMC3R = mMC3R (Mus musculus, UniProt P33033); assay: cAMP-based β-galactosidase reporter agonist assay in HEK293 cells, mMC3R; conditions: for selectivity for the mMC3R over the mMC1R: from agonist EC50 values
mMC3R, sequence (P33033 whole entry): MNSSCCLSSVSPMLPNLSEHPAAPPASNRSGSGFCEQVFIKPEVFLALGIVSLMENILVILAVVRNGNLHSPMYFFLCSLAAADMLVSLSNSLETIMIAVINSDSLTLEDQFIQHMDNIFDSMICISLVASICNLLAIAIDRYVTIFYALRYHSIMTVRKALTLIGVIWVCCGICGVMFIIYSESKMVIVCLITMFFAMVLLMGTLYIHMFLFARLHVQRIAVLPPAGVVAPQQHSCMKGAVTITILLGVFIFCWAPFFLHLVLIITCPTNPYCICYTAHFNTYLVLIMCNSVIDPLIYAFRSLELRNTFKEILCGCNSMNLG

mMC5R = mMC5R (Mus musculus, UniProt P41149); assay: cAMP-based β-galactosidase reporter agonist assay in HEK293 cells, mMC5R; conditions: for mMC5R fold difference: EC50 of substituted peptide divided by EC50 of α-MSH, potency loss; for selectivity for the mMC5R over the mMC1R: from agonist EC50 values
mMC5R, sequence (P41149 whole entry): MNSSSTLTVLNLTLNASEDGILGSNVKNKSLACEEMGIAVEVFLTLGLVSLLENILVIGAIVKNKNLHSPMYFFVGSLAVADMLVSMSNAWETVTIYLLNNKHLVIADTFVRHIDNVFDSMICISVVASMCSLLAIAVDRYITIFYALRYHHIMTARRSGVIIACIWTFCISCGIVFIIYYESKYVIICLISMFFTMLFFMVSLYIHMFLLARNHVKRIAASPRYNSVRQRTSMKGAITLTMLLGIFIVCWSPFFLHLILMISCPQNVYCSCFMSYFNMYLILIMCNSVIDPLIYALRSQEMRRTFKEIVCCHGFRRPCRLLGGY

mMC1R [3] = biological target: T1, mMC1R; assay: cAMP-based β-galactosidase reporter agonist assay in HEK293 cells, mMC1R; conditions: for mMC1R fold difference: EC50 of substituted peptide divided by EC50 of α-MSH, potency loss

T1 sequence (Q01727 whole entry): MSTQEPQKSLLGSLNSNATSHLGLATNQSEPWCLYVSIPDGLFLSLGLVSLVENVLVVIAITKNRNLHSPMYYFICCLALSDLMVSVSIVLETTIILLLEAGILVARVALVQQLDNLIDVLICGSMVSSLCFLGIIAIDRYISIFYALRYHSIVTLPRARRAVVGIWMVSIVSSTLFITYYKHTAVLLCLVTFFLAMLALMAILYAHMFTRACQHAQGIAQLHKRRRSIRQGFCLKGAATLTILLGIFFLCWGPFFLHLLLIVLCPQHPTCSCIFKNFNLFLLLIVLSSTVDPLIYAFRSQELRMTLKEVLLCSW

SMILES: CSCC[C@H](NC(=O)[C@H](CO)NC(=O)[C@H](Cc1ccc(O)cc1)NC(=O)[C@H](C)NC(C)=O)C(=O)N[C@@H](CCC(=O)O)C(=O)N[C@@H](Cc1c[nH]cn1)C(=O)N[C@@H](Cc1ccccc1)C(=O)N[C@@H](CCCNC(=N)N)C(=O)N[C@@H](Cc1c[nH]c2ccccc12)C(=O)NCC(=O)N[C@@H](CCCCN)C(=O)N1CCC[C@H]1C(=O)N[C@H](C(N)=O)C(C)C [[Ala^1]α-MSH]
- fold decreased tyrosinase potency at the mMC1R (mMC1R [1]): did not affect
- fold decreased binding affinity at the mMC1R (mMC1R [2]): did not affect
- mMC4R fold difference (mMC4R): no differences
- fold decreased binding affinity at the rMC3R (rMC3R): did not affect
- EC50 (mMC3R): 17.4 ± 10.4 nM
- mMC5R fold difference (mMC5R): no differences
- mMC1R fold difference (mMC1R [3]): 5 fold

SMILES: CSCC[C@H](NC(=O)[C@H](C)NC(=O)[C@H](Cc1ccc(O)cc1)NC(=O)[C@H](CO)NC(C)=O)C(=O)N[C@@H](CCC(=O)O)C(=O)N[C@@H](Cc1c[nH]cn1)C(=O)N[C@@H](Cc1ccccc1)C(=O)N[C@@H](CCCNC(=N)N)C(=O)N[C@@H](Cc1c[nH]c2ccccc12)C(=O)NCC(=O)N[C@@H](CCCCN)C(=O)N1CCC[C@H]1C(=O)N[C@H](C(N)=O)C(C)C [[Ala^3]α-MSH]
- fold decreased tyrosinase potency at the mMC1R (mMC1R [1]): equipotent
- fold decreased binding affinity at the mMC1R (mMC1R [2]): equipotent
- mMC4R fold difference (mMC4R): within experimental error
- fold decreased binding affinity at the rMC3R (rMC3R): equipotent
- EC50 (mMC3R): 12.1 ± 6.35 nM
- mMC5R fold difference (mMC5R): within experimental error
- mMC1R fold difference (mMC1R [3]): 26 fold

SMILES: CC(=O)N[C@@H](CO)C(=O)N[C@@H](Cc1ccc(O)cc1)C(=O)N[C@@H](CO)C(=O)N[C@@H](C)C(=O)N[C@@H](CCC(=O)O)C(=O)N[C@@H](Cc1c[nH]cn1)C(=O)N[C@@H](Cc1ccccc1)C(=O)N[C@@H](CCCNC(=N)N)C(=O)N[C@@H](Cc1c[nH]c2ccccc12)C(=O)NCC(=O)N[C@@H](CCCCN)C(=O)N1CCC[C@H]1C(=O)N[C@H](C(N)=O)C(C)C [[Ala^4]α-MSH]
- fold decreased tyrosinase potency at the mMC1R (mMC1R [1]): 59 fold
- fold decreased binding affinity at the mMC1R (mMC1R [2]): 140 fold
- mMC4R fold difference (mMC4R): 5 fold
- selectivity for the mMC4R over the mMC1R (mMC4R): 100 fold
- fold decreased binding affinity at the rMC3R (rMC3R): 14 fold
- EC50 (mMC3R): 17.4 ± 6.12 nM
- selectivity for the mMC3R over the mMC1R (mMC3R): 710 fold
- mMC5R fold difference (mMC5R): did not alter potency
- selectivity for the mMC5R over the mMC1R (mMC5R): 210 fold
- mMC1R fold difference (mMC1R [3]): 400 fold

SMILES: CSCC[C@H](NC(=O)[C@H](CO)NC(=O)[C@H](Cc1ccc(O)cc1)NC(=O)[C@H](CO)NC(C)=O)C(=O)N[C@@H](C)C(=O)N[C@@H](Cc1c[nH]cn1)C(=O)N[C@@H](Cc1ccccc1)C(=O)N[C@@H](CCCNC(=N)N)C(=O)N[C@@H](Cc1c[nH]c2ccccc12)C(=O)NCC(=O)N[C@@H](CCCCN)C(=O)N1CCC[C@H]1C(=O)N[C@H](C(N)=O)C(C)C [[Ala^5]α-MSH]
- fold decreased tyrosinase potency at the mMC1R (mMC1R [1]): equipotent
- fold decreased binding affinity at the mMC1R (mMC1R [2]): equipotent
- mMC4R fold difference (mMC4R): 15 fold
- selectivity for the mMC4R over the mMC1R (mMC4R): 130 fold
- fold decreased binding affinity at the rMC3R (rMC3R): equipotent
- EC50 (mMC3R): 220 ± 55 nM
- selectivity for the mMC3R over the mMC1R (mMC3R): 220 fold
- mMC5R fold difference (mMC5R): unaltered
- selectivity for the mMC5R over the mMC1R (mMC5R): 740 fold
- mMC1R fold difference (mMC1R [3]): 1560 fold
- EC50 (mMC1R [3]; mMC1R EC50, bound, Table 2, EC50 higher than 20 μM): > 20000 nM
